Reference: patent US6376497B1, “Antifungal azole derivatives having a fluorinated vinyl group and process for preparing same” (Korea Research Institute of Chemical Technology, priority 1999, dated 2002)

Columns and labels:
Test in all cases: In vitro antifungal activity, microbroth dilution MIC
Assay type in all cases: cell-based
Conditions in all cases: RPMI-1640, 35° C., 4 to 48 hours, no growth observed
[1] = system: Aspergillus furnigatus B. 19119
Summary of the method: (§1)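 Broth microdilution adapted from NCCLS M27, in RPMI-1640 with 0.165 M MOPS, pH 7.0. Yeast or mould inoculum at 2×10^3 CFU/ml was mixed 1:1 with DMSO-derived compound solutions (200 to 0.10 μg/ml before mixing) and incubated at 35 °C for 4 to 48 h. MIC was the concentration showing no growth.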

[2] = system: Aspergillus niger A. 16404
Summary of the method: as §1

[3] = system: Candida albicans A. 10231
Summary of the method: as §1

[4] = system: Candida albicans C1-2
Summary of the method: as §1

[5] = system: Candida albicans IFO. 1385
Summary of the method: as §1

[6] = system: Candida krusei K. 11655
Summary of the method: as §1

[7] = system: Candida parapsitosis A. 7330
Summary of the method: as §1

[8] = system: Candida pseudotropicalis K. 11658
Summary of the method: as §1

[9] = system: Candida tropicalis A. 13803
Summary of the method: as §1

[10] = system: Cryptococcus neoformans A. 34144
Summary of the method: as §1

[11] = system: Cryptococcus neoformans B. 42419
Summary of the method: as §1

[12] = system: Cryptococcus neoformans IFM. 40092
Summary of the method: as §1

[13] = system: Torulopsis glabrata B. 16205
Summary of the method: as §1

[14] = system: Trichophyton mentagrophytes A. 9129
Summary of the method: as §1

[15] = system: Trichophyton mentagrophytes B. 32663
Summary of the method: as §1

| SMILES | Minimal inhibitory concentration(MIC), A furnigatus B. 19119 [1] [µg/mL] | Minimal inhibitory concentration(MIC), A. niger A. 16404 [2] [µg/mL] | Minimal inhibitory concentration(MIC), C. albicans A. 10231 [3] [µg/mL] | Minimal inhibitory concentration(MIC), C. albicans C1-2 [4] [µg/mL] | Minimal inhibitory concentration(MIC), C. albicans IFO. 1385 [5] [µg/mL] | Minimal inhibitory concentration(MIC), C. krusei K. 11655 [6] [µg/mL] | Minimal inhibitory concentration(MIC), C. parapsitosis A. 7330 [7] [µg/mL] | Minimal inhibitory concentration(MIC), C. pseudotropicalis K. 11658 [8] [µg/mL] | Minimal inhibitory concentration(MIC), C. tropicalis A. 13803 [9] [µg/mL] | Minimal inhibitory concentration(MIC), Cry. neoformans A. 34144 [10] [µg/mL] | Minimal inhibitory concentration(MIC), Cry. neoformans B. 42419 [11] [µg/mL] | Minimal inhibitory concentration(MIC), Cry. neoformans IFM. 40092 [12] [µg/mL] | Minimal inhibitory concentration(MIC), T. glabrata B. 16205 [13] [µg/mL] | Minimal inhibitory concentration(MIC), T. mentagrophytes A. 9129 [14] [µg/mL] | Minimal inhibitory concentration(MIC), T. mentagrophytes B. 32663 [15] [µg/mL] |
| --- | --- | --- | --- | --- | --- | --- | --- | --- | --- | --- | --- | --- | --- | --- | --- |
| FC(Oc1ccc(OCC2COC(Cn3ccnc3)(c3ccc(F)cc3F)O2)cc1)=C(c1cccc(F)c1)C(F)(F)F (mixture of isomers) [Ex. 115] | >100 | >100 | 25.0 | 25.0 | 1.56 | >100 | >100 | >100 | 100 | 1.56 | 3.13 | 0.39 | 50.0 | 6.25 | 3.13 |
| FC(Oc1ccc(OCC2COC(Cn3ccnc3)(c3ccc(F)cc3F)O2)cc1)=C(c1cc(Cl)cc(Cl)c1)C(F)(F)F (mixture of isomers) [Ex. 116] | >100 | >100 | 100 | 100 | 3.13 | 100 | 100 | 25.0 | >100 | 1.56 | 1.56 | 0.20 | 50.0 | 6.25 | 3.13 |
| COc1ccc(C=C(F)Oc2ccc(OCC3COC(Cn4cncn4)(c4ccc(Cl)cc4Cl)O3)cc2)cc1 (mixture of isomers) [Ex. 118] | >100 | >100 | 25.0 | 12.5 | 1.56 | >100 | >100 | 25.0 | 100 | 1.56 | 1.56 | 0.39 | 50.0 | 6.25 | 3.13 |
